Patent publication US8362022B2, “Selective subtype alpha 2 adrenergic agents and methods for use thereof” (Allergan, Inc., priority 2008, dated 2013)

Legend:
alpha 2C receptor = target: T1, alpha 2C receptor (Homo sapiens, UniProt P18825); assay: RSAT assay (Receptor Selection and Amplification Technology), Alpha 2C; type: cell-based; conditions: RSAT
T1 construct: expressed in transfected cells; host or cells: NIH-3T3
T1 sequence (P18825 1-462): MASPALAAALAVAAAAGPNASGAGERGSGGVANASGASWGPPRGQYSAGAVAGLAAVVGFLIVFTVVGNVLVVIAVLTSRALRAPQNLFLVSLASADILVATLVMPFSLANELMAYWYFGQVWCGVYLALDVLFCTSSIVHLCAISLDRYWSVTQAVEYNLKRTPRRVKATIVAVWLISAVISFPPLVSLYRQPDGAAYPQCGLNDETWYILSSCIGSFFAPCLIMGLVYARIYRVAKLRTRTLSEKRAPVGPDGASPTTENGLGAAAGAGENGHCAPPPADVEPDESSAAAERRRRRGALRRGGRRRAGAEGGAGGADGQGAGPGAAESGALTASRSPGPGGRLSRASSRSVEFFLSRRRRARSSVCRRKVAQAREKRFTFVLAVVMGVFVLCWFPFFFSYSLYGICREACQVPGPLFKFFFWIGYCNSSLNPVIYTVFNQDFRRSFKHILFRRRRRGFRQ
Experimental: The RSAT assay measures a receptor-mediated loss of contact inhibition that results in selective proliferation of receptor-containing cells in a mixed population of confluent cells. The increase in cell number is assessed with an appropriate transfected marker gene such as β-galactosidase, the activity of which can be easily measured in a 96-well format. Receptors that activate the G protein, Gq, elicit this response. Alpha 2 receptors, which normally couple to Gi, activate the RSAT response when coexpressed with a hybrid Gq protein that has a Gi receptor recognition domain, called Gq/i5.
NIH-3T3 cells are plated at a density of 2×10^6 cells in 15 cm dishes and maintained in Dulbecco's modified Eagle's medium supplemented with 10% calf serum. One day later, cells are cotransfected by calcium phosphate precipitation with mammalian expression plasmids encoding p-SV-β-galactosidase (5-10 μg), receptor (1-2 μg) and G protein (1-2 μg). 40 μg salmon sperm DNA may also be included in the transfection mixture. […] Cells are thawed and 100 μl added to 100 μL aliquots of various concentrations of drugs in triplicate in 96-well dishes. Incubations continue 72-96 hr at 37° C. After washing with phosphate-buffered saline, β-galactosidase enzyme activity is determined by adding 200 μL of the chromogenic substrate (consisting of 3.5 mM o-nitrophenyl-β-D-galactopyranoside and 0.5% nonidet P-40 in phosphate buffered saline), incubating overnight at 30° C. and measuring optical density at 420 nm. The absorbance is a measure of enzyme activity, which depends on cell number and reflects a receptor-mediated cell proliferation. The efficacy or intrinsic activity is calculated as a ratio of the maximal effect of the drug to the maximal effect of a standard full agonist for each receptor subtype. Brimonidine, the chemical structure of which is shown below, is used as the standard agonist for the alpha 2B and alpha 2C receptors. […] NA stands for “not active” at concentrations less than 3-10 micromolar.

[1] = test system: Chung model of neuropathic pain; assay: Chung model of neuropathic pain (tactile allodynia, von Frey hairs); type: in vivo; conditions: rats
From the text: A model in accordance with Kim and Chung 1992, Pain […], pp 355-363 (Chung model), for chronic pain (in particular peripheral neuropathy) involves the surgical ligation of the L5 (and optionally the L6) spinal nerves on one side in experimental animals. Rats recovering from the surgery gain weight and display a level of general activity similar to that of normal rats. However, these rats develop abnormalities of the foot, wherein the hindpaw is moderately everted and the toes are held together. More importantly, the hindpaw on the side affected by the surgery appears to become sensitive to pain from low-threshold mechanical stimuli, such as that producing a faint sensation of touch in a human, within about 1 week following surgery. This sensitivity to normally non-painful touch is called “tactile allodynia” and lasts for at least two months. The response includes lifting the affected hindpaw to escape from the stimulus, licking the paw and holding it in the air for many seconds. None of these responses is normally seen in the control group.
Rats are anesthetized before surgery. The surgical site is shaved and prepared either with betadine or Novacaine. Incision is made from the thoracic vertebra XIII down toward the sacrum. Muscle tissue is separated from the spinal vertebra (left side) at the L4-S2 levels. The L6 vertebra is located and the transverse process is carefully removed with a small rongeur to expose the L4-L6 spinal nerves. The L5 and L6 spinal nerves are isolated and tightly ligated with 6-0 silk thread. The same procedure is done on the right side as a control, except no ligation of the spinal nerves is performed.
A complete hemostasis is confirmed, then the wounds are sutured. A small amount of antibiotic ointment is applied to the incised area, and the rat is transferred to the recovery plastic cage under a regulated heat-temperature lamp. On the day of the experiment, at least seven days after the surgery, typically six rats per test group are administered the test drugs by intraperitoneal (i.p.) injection or oral gavage. For i.p. injection, the compounds are formulated in approximately 10 to 50% DMSO and given in a volume of 1 ml/kg body weight.
Tactile allodynia is measured prior to and 30 minutes after drug administration using von Frey hairs that are a series of fine hairs with incremental differences in stiffness. Rats are placed in a plastic cage with a wire mesh bottom and allowed to acclimate for approximately 30 minutes. The von Frey hairs are applied perpendicularly through the mesh to the mid-plantar region of the rats' hindpaw with sufficient force to cause slight buckling and held for 6-8 seconds. The applied force has been calculated to range from 0.41 to 15.1 grams. If the paw is sharply withdrawn, it is considered a positive response. A normal animal will not respond to stimuli in this range, but a surgically ligated paw will be withdrawn in response to a 1-2 gram hair. The 50% paw withdrawal threshold is determined using the method of Dixon, W. J., Ann. Rev. Pharmacol. Toxicol. 20:441-462 (1980). The post-drug threshold is compared to the pre-drug threshold and the percent reversal of tactile sensitivity is calculated based on a normal threshold of 15.1 grams. The results are expressed in percent (%) MPE, where the MPE value reflects the percentage reversal of pain threshold to that of a normal animal (100%).

Question: With `Cc1cccc(C(Cc2cccnc2)/N=C2/NCCO2)c1C` (centres unmarked) [Compound 21, 1-(2,3-Dimethylphenyl)-N-(oxazolidin-2-ylidene)-2-(pyridin-3-yl)ethanamine] as the compound, how does the EC50 (alpha 2C receptor; transfected NIH-3T3 cells with Gq/i5, NA = not active at concentrations less than 10 micromolar, read-out: potency nM (EC50) Alpha 2C) read?
Answer: Its EC50 is 18 nM.

Question: And the “Intrinsic Activity efficacy Alpha 2C” value (alpha 2C receptor; value in parentheses, ratio of maximal effect to that of brimonidine)?
Answer: Its value is 0.4.

Question: What about the “% Pain Reversal ± SEM” value ([1]; 0.10 mg i.p., 30 min) of the same compound?
Answer: The value was 27 ± 5%.

Question: What about the “% Pain Reversal ± SEM” value ([1]; 0.10 mg i.p., 60 min) of the same compound?
Answer: Its value is roughly 10%.

Question: What about the “% Pain Reversal ± SEM” value ([1]; 0.30 mg i.p., 30 min) of the same compound?
Answer: The value was 60.1 ± 12.8%.

Question: What about the “% Pain Reversal ± SEM” value ([1]; 0.30 mg i.p., 60 min) of the same compound?
Answer: Its value is 21.5 ± 6.1%.

Question: And the “% Pain Reversal ± SEM” value ([1]; 1.0 mg i.p., 30 min)?
Answer: Its value is 95.9 ± 4.1%.

Question: What about the “% Pain Reversal ± SEM” value ([1]; 1.0 mg i.p., 60 min) of the same compound?
Answer: Its value is 77.0 ± 7.6%.
